According to patent publication US8486945B2, “Heterocyclic inhibitors of an Hh-signal cascade, medicinal compositions based thereon and methods for treating diseases caused by the aberrant activity of an Hh-signal system” (priority 2007, dated 2013):

Key:
Hh-signalling cascade = assay: Inhibition of SHh-induced alkaline phosphatase in C3H10T1/2 cells (Hh-signalling cascade inhibition); assay type: cell-based; conditions: Mus musculus, C3H 10T1/2, half maximal inhibition of SHh (0.3 μg/ml) stimulation of cell alkaline phosphatase
Excerpt: C3H10T1/2 Cells were used for identification of inhibitors of SHh-protein signaling cascade. SHh-protein activates C3H10T1/2 cells, that leads to their osteogenic differentiation [1) Kinto N., Iwamoto M., Enomoto-Iwamoto M., Noji S., Ohuchi H., Yoshioka H., Kataoka H., Wada Y., Yuhao G., Takahashi H. E., Yoshiki S., Yamaguchi A. Fibroblasts expressing Sonic hedgehog induce osteoblast differentiation and ectopic bone formation. FEBS Lett. 1997; 404(2-3): 319-23. 2) Spinella-Jaegle S., Rawadi G., Kawai S., Gallea S., Faucheu C., Mollat P., Courtois B., Bergaud B., Ramez V., Blanchet A. M., Adelmant G., Baron R., Roman-Roman S. Sonic hedgehog increases the commitment of pluripotent mesenchymal cells into the osteoblastic lineage and abolishes adipocytic differentiation. J. Cell Sci. 2001; 114(Pt 11): 2085-94] and, in particular, to expression enhancement of alkaline phosphatase enzyme.
The cells were cultivated in DMEM medium with 10% embryonal calfish serum in incubator at 37° C., 100% humidity and 5% CO2 content. The cells were placed in 384-well plates and left for night. On the next day the tested compounds in concentration of 10 μM were added to the cells, incubated for 30 min, then recombinant (R & D Systems, USA) SHh protein in concentration of 0.3 μg/ml was added and incubation was continued for 3 days. Cells with DMSO instead of a test compound and cells without SHh protein were used as test control. For determination of the cell alkaline phosphatase activity the cells were lysed in the buffer containing 0.2% Triton-X100, lisates were incubated together with proluminescent substrate CSPD (Applied Biosystems, USA) and the resultant luminescence was measured using reader VICTOR^2V (PerkinElmer, USA).
The ability of the compounds to inhibit Hh-signalling cascade was determined using C3H10T1/2 cells in 384-well plates as described in example 1. The compounds were added in triplicates in various concentrations, prepared by multiple dilution of starting solutions (concentration dependences of cell alkaline phosphatase inhibition induced by the addition of tested compounds are shown in FIG. 1). Activity of the compounds was characterized by their concentrations produced half maximal inhibition of stimulation of cell alkaline phosphatase SHh (IC50).

SMILES | IC50 (Hh-signalling cascade) [nM] | melting point [°C]
Cc1nn(CC(=O)N2CCN(c3cccc(Cl)c3)CC2)c(=O)c2nn(-c3ccccc3)c(C)c12 [I-1002, 2-phenyl-3,4-dimethyl-6-{2-[4-(3-chlorophenyl)piperazin-1-yl]-2-oxoethyl}-2,6-dihydro-7H-pyrazolo[3,4-d]pyridazin-7-one] | < 500 | 257 to 259
Cc1nn(CC(=O)N2CCN(c3ccccc3)CC2)c(=O)c2nn(-c3ccccc3)c(C)c12 [I-1003, 2-Phenyl-3,4-dimethyl-6-{2-[4-phenylpiperazin-1-yl]-2-oxoethyl}-2,6-dihydro-7H-pyrazolo[3,4-c]pyridazin-7-one] | < 500 | 252 to 254
Cc1cccc(N2CCN(C(=O)Cn3nc(C)c4c(C)n(-c5ccccc5)nc4c3=O)CC2)c1C [I-1004, 2-Phenyl-3,4-dimethyl-6-{2-[4-(2,3-dimethylphenyl)piperazin-1-yl]-2-oxoethyl}-2,6-dihydro-7H-pyrazolo[3,4-d]pyridazin-7-one] | < 500 | 249 to 251
Cc1ccc(C)c(N2CCN(C(=O)Cn3nc(C)c4c(C)n(-c5ccccc5)nc4c3=O)CC2)c1 [I-1005, 2-Phenyl-3,4-dimethyl-6-{2-[4-(2,5-dimethylphenyl)piperazin-1-yl]-2-oxoethyl}-2,6-dihydro-7H-pyrazolo[3,4-d]pyridazin-7-one] | < 500 | 232 to 234
Cc1nn(CC(=O)N2CCN(c3ccc(F)cc3)CC2)c(=O)c2nn(-c3ccccc3)c(C)c12 [I-1006, 2-Phenyl-3,4-dimethyl-6-{2-[4-(4-fluorophenyl)piperazin-1-yl]-2-oxoethyl}-2,6-dihydro-7H-pyrazolo[3,4-d]pyridazin-7-one] | < 500 | 257 to 259
Cc1nn(CC(=O)N2CCN(c3ccccc3F)CC2)c(=O)c2nn(-c3ccccc3)c(C)c12 [I-1007, 2-Phenyl-3,4-dimethyl-6-{2-[4-(2-fluorophenyl)piperazin-1-yl]-2-oxoethyl}-2,6-dihydro-7H-pyrazolo[3,4-d]pyridazin-7-one] | < 500 | 240 to 242
Cc1nn(C(C)C(=O)N2CCN(c3ccccc3)CC2)c(=O)c2nn(-c3ccccc3)c(C)c12 (centres unmarked) [I-1008, 2 Phenyl-3,4-dimethyl-6-[1-methyl-2-(4-phenylpiperazin-1-yl)-2-oxoethyl]-2,6-dihydro-7H-pyrazolo[3,4-d]pyridazin-7-one] | < 500 | 193 to 195
Cc1nn(C(C)C(=O)N2CCN(c3cccc(Cl)c3)CC2)c(=O)c2nn(-c3ccccc3)c(C)c12 (centres unmarked) [I-1009, 2-Phenyl-3,4-dimethyl-6-{1-methyl-2-[4-(3-chlorophenyl)piperazin-1-yl]-2-oxoethyl}-2,6-dihydro-7H-pyrazolo[3,4-d]pyridazin-7-one] | < 500 | 194 to 196
Cc1nn(C(C)C(=O)N2CCN(C3CCCCC3)CC2)c(=O)c2nn(-c3ccccc3)c(C)c12 (centres unmarked) [I-1010, 2-Phenyl-3,4-dimethyl-6-{1-methyl-2-[4-cyclohexylpiperazin-1-yl]-2-oxoethyl}-2,6-dihydro-7H-pyrazolo[3,4-d]pyridazin-7-one] | < 500 | 132 to 135
Cc1cccc(N2CCN(C(=O)C(C)n3nc(C)c4c(C)n(-c5ccccc5)nc4c3=O)CC2)c1C (centres unmarked) [I-1011, 2-Phenyl-3,4-dimethyl-6-{1-methyl-2-[4-(2,3-dimethylphenyl)piperazin-1-yl]-2-oxoethyl}-2,6-dihydro-7H-pyrazolo[3,4-d]pyridazin-7-one] | < 500 | 136 to 138
Cc1nn(C(C)C(=O)N2CCN(Cc3ccccc3)CC2)c(=O)c2nn(-c3ccccc3)c(C)c12 (centres unmarked) [I-1012, 2-Phenyl-3,4-dimethyl-6-{1-methyl-2-[4-benzylpiperazin-1-yl]-2-oxoethyl}-2,6-dihydro-7H-pyrazolo[3,4-d]pyridazin-7-one] | < 500 | 152 to 154
O=C(c1cc2sccc2n1Cc1ccc(F)cc1)N1CCC(C(=O)N2CCOCC2)CC1 [V-1001, [4-(4-Fluorobenzyl)-4H-thieno[3,2-b]pyrrol-5-yl][4-(morpholine-4-carbonyl)piperidin-1-yl]methanone] | < 500 | 120 to 122
Cc1cc(C)cc(NC(=O)C2CCN(C(=O)c3cc4sccc4n3Cc3ccc(F)cc3)CC2)c1 [V-1002, 1-[4-(4-Fluorobenzyl)-4H-thieno[3,2-b]pyrrole-5-carbonyl]piperidine-4-carboxylic acid (3,5-dimethylphenyl)amide] | < 500 | 203 to 205
COc1ccc(Cn2c(C(=O)N3CCC(C(=O)N4CCN(C)CC4)CC3)cc3sccc32)cc1 [V-1053, [4-(4-Methoxybenzyl)-4H-thieno[3,2-b]pyrrol-5-yl]-[4-(4-methylpiperazine-1-carbonyl)piperidin-1-yl]methanone] | < 500 | 
CN1CCN(C(=O)C2CCN(C(=O)c3cc4sccc4n3Cc3ccc(N(C)C)cc3)CC2)CC1 [V-1054, [4-(4-Dimethylaminobenzyl)-4H-thieno[3,2-b]pyrrol-5-yl]-[4-(4-methylpiperazine-1-carbonyl)piperidin-1-yl]methanone] | < 500 | 
CN1CCN(C(=O)C2CCN(C(=O)c3cc4sccc4n3Cc3ccc4c(c3)OCO4)CC2)CC1 [V-1055, [4-(3,4-Methylendioxybenzyl)-4H-thieno[3,2-b]pyrrol-5-yl]-[4-(4-methylpiperazine-1-carbonyl)piperidin-1-yl]methanone] | < 500 | 
CCOc1ccc(NC(=O)c2ccnc(N3CCC(C(=O)Nc4ccc(F)cc4)CC3)c2)cc1 [VI-1007, 3,4,5,6-Tetrahydro-2H-[1,2′]bipyridinyl-4,4′-carboxylic acid 4′-[(4-ethoxyphenyl)amide] 4-[(4-fluorophenyl)amide]] | < 5000 | 
CS(=O)(=O)N1CCCc2cc(C(=O)Nc3ccc4c(c3)OCO4)ccc21 [VII-1005, 1-Methylsulfonyl-1,2,3,4-tetrahydroquinoline-6-carboxylic acid (benzo[1,3]dioxol-5-yl)amide] | < 500 | 
O=C(Nc1ccc(F)cc1)c1ccc2c(c1)CCCN2S(=O)(=O)c1ccccc1 [VII-1012, 1-Phenylsulfonyl-1,2,3,4-tetrahydroquinoline-6-carboxylic acid (4-fluorophenyl)amide] | < 5000 | 
COc1ccc(NC(=O)c2ccc3c(c2)CCCN3S(=O)(=O)c2ccc(C)cc2)cc1 [VII-1014, 1-Tosyl-1,2,3,4-tetrahydroquinoline-6-carboxylic acid (4-methoxyphenyl)amide] | < 5000 | 
Cc1ccc(NC(=O)c2ccc3c(c2)CCCN3S(=O)(=O)c2ccc(Cl)cc2)cc1C [VII-1017, 1-(4-Chlorophenylsulfonyl)-1,2,3,4-tetrahydroquinoline-6-carboxylic acid (3,4-dimethylphenyl)amide] | < 500 | 
Cc1ccc(NC(=O)c2ccc3c(c2)CCCN3S(=O)(=O)c2ccc(Br)cc2)cc1 [VII-1020, 1-(4-Bromophenylsulfonyl)-1,2,3,4-tetrahydroquinoline-6-carboxylic acid p-tolylamide] | < 5000 | 
CCS(=O)(=O)N1CCCc2cc(C(=O)Nc3ccccc3F)ccc21 [VII-1025, 1-Ethylsulfonyl-1,2,3,4-tetrahydroquinoline-6-carboxylic acid (2-fluorophenyl)amide] | < 5000 | 
CN1CCc2c(sc(NC(=O)C3CC3)c2-c2nc3ccccc3s2)C1 [VIII-1003, Cyclopropanecarboxylic acid (3-benzo[d]thiazol-2-yl-6-methyl-4,5,6,7-tetrahydrothieno[2,3-c]pyridin-2-yl)amide] | < 5000 | 
CC(=O)N1CCc2c(sc(NC(=O)C3CCCCC3)c2-c2nc3ccccc3s2)C1 [VIII-1016, Cyclohexanecarboxylic acid (6-acetyl-3-benzo[d]thiazol-2-yl-4,5,6,7-tetrahydrothieno[2,3-c]pyridin-2-yl)amide] | < 5000 | 
CC(=O)N1CCc2c(sc(NC(=O)Cc3ccccc3)c2-c2nc3ccccc3s2)C1 [VIII-1017, N-(6-Acetyl-3-benzo[d]thiazol-2-yl-4,5,6,7-tetrahydrothieno[2,3-c]pyridin-2-yl)-2-phenylacetamide] | < 50000 | 
COC(=O)c1ccc(C(=O)Nc2sc3c(c2-c2nc4ccccc4s2)CCN(C(C)C)C3)cc1 [VIII-1025] | < 50000 | 
CN1CCc2c(sc(NC(=O)c3cccc(C(F)(F)F)c3)c2-c2nc3ccccc3s2)C1 [VIII-1026, N-(3-(Benzo[d]thiazol-2-yl)-6-methyl-4,5,6,7-tetrahydrothieno[2,3-c]pyridin-2-yl)-3-trifluoromethylbenzamide] | < 50000 | 
